Patent publication US9670223B2, “Compounds with super-aspirin effects” (SOLVOTRIN THERAPEUTICS LTD., priority 2011, dated 2017)
Read-outs that look alike come from different tables or passages of the source.

Tests used:
[1] = tested on: platelet rich plasma (PRP); test: Collagen-induced platelet aggregation in platelet rich plasma (light aggregometry); type: cell-based, human; details: for inhibition of collagen induced aggregation by hydrolysis products: 10-300 μM in PRP, collagen 5 μg/ml
Description: (§1) PRP and WP (2.5×10^8 platelets ml^−1) were prepared from blood. Briefly 36 ml whole blood was collected into 4 ml of 3.15% sodium citrate; this was centrifuged at 250 ¥g for 20 min (with gentle acceleration and deceleration). At this point PRP, which had separated from white blood cells and red blood cells, was gently removed. When WP were required this PRP was centrifuged at 700 g for 10 min (with gentle acceleration and deceleration) in the presence of prostacyclin. The platelet-poor plasma (PPP) was removed and the platelet pellet was washed three times with Tyrode's buffer, before being re-suspended in Tyrode's buffer to a concentration of 2.5 ¥108 platelets/ml.
(§2) Platelet aggregation was measured by light aggregometry. […] Aggregation was initiated by the addition of agonists, and monitored by Aggro-Link software for at least 6 min.
(§3) To study the aggregatory potency of ADP, the concentration-response (0.3-10 μM) curves were generated. Collagen at different concentrations (2-5 μg/ml) was also used to induce platelet aggregation. Submaximal concentrations of agonists, i.e. the concentrations that gave approximately 95% of the maximal aggregation were used to study the effects of inhibitors of aggregation. Aspirin and aspirin prodrugs was incubated for various intervals prior to the addition of aggregating agents.
(§4) Eserine (in DMSO, 10 μM, giving a final concentration≦0.25% DMSO, which pilot studies had determined not to affect platelet aggregation) was preincubated with PRP or WP for 5 min in the aggregometer with stirring at 900 r.p.m. before the addition of test compounds (ST0701-05), which were incubated in PRP or WP for a further 10 min prior to the addition of an agonist (10 μM ADP or 5 μg/ml Collagen) to induce platelet aggregation.

[2] = tested on: platelet esterases (pNPA hydrolysis in WP); type: biochemical, human; details: for effect on NPA/PNA activity of WP or lysed platelets: 10-100 μM
Description: WP, PRP, PPP or lysed WP and 50 mM TrisHCl pH7.4 were incubated on a 96 well plate at 37° C. for 30 min. PNA at a final concentration of 3 mM was added to the plate and the change in absorbance at 405 nm was measured over a period of 10 min.
NPA hydrolyse activity could be due to CE (EC 3.1.1.1), BuChE, acetylcholinesterase (AChE, EC 3.1.1.7) or paraoxanase/arylesterase (PON, EC 3.1.8.1). To identify which esterases were involved in the hydrolysis of PNA, various inhibitors were incubated with the WP, PRP, PPP or lysed WP and 50 mM TrisHCl pH7.4 for 30 min at 37° C. prior to the addition of the PNA and the measurement of the change in absorbance at 405 nm. Physostigmine (100 μM), a cholinesterase inhibitor was used to check if BuChE/AChE played a role in the hydrolysis of PNA. […] PMSF (10-100 μM) was used to determine if serine proteases played any part in the hydrolysis of PNA by platelets. EDTA a calcium chelator was used to investigate the role played by PON esterases. BNPP a CE inhibitor of was used to investigate if carboxylesterases played a role in hydrolysis of PNA by platelets.

[3] = Plasma pharmacokinetics of aspirin and metabolites after single oral gavage dose; type: in vivo, cynomolgus monkey
Description: The objectives of this study are to determine the comparative clinical efficacy as determined by TxB2 suppression with single oral gavage dose administration of Aspirin, ST0702 and ST0702 Micronised to the cynomolgus monkey. Aspirin pharmacokinetics were compared using Area Under the Curve (AUC) calculations.
The objectives of this study are to determine the comparative pharmacokinetics of ST0702 at 9.6 and 4.8 mg/Kg with single oral gavage dose administration to the cynomolgus monkey and to determine dose-response effects.
Although the half life of the Isosorbide 2 salicylate 5 nicotinate metabolite is very short in-vitro, we investigated the serum taken from Cynomologus Monkeys participating in Study 2B above. The comparative pharmacokinetics of Isosorbide 2 salicylate 5 nicotinate from Monkeys receiving a single oral gavage dose of micronized ST0702 at 9.6 and 4.8 mg/Kg were evaluated. The concentrations of the breakdown products of ISANA were quantified using LCMS methods.
Animals are acclimated to the oral gavage procedure for at least 3 days prior to the commencement of dose formulation administration. Deionized water is administered by oral gavage using a disposable catheter attached to a plastic syringe at a dose volume of 5 mL/kg. Animals are treated at approximately the same time on each dosing day. Dose formulations are administered by oral gavage using a disposable catheter attached to a plastic syringe. Following each daily dose, the gavage tube is rinsed with 6 mL of Ultra Pure water into the animal's stomach. Each animal will be dosed with a clean gavage tube on each dosing occasion. The dosing volume is 10 mL/kg. Each actual volume administered will be based on the most recent practical body weight of each animal. The dose formulations will be stirred continuously during dose administration.
Samples are mixed gently and placed on crushed wet ice until centrifugation, which are carried out as soon as practical. The samples are centrifuged for approximately 10 minutes in a refrigerated centrifuge (approximately 4° C.) at 2700 rpm. The resultant plasma are separated, transferred to uniquely labeled clear polypropylene tubes, and frozen immediately over dry ice and transferred to a freezer set to maintain −80° C. The plasma samples are transferred to the bioanalytical laboratory at the Testing Facility.
Plasma samples are analyzed for concentration of Aspirin, Salicylic Acid and Nicotinic Acid using a qualified analytical procedure. Analysis are performed by LC MS/MS under Analytical Procedure. Data collection is performed using Analyst from AB Sciex. […]

[4] = tested on: TxB2; test: TxB2 suppression after single oral gavage dose; type: in vivo, cynomolgus monkey; details: for TxB2 suppression (TxB2 levels as percentage of baseline), in words: Phase 2A, single oral gavage, ST0702 9.6 mg/kg, aspirin 4.2 mg/kg, 1 and 24 hours post dosing; for TxB2 suppression, % complete: Phase 2B, at 24 hours
[5] = tested on: P-selectin; test: Flow cytometry of platelet P-selectin during TCIPA induced by 59M cells; type: cell-based, human; details: 300 μM
[6] = tested on: 59M cells; test: Tumour cell-induced platelet aggregation (TCIPA), static conditions, 59M; type: cell-based, human; details: static, WP, 300 and 500 μM, 59M 1×10^3/ml
Description: ISAS meanwhile is hydrolysed to aspirin and salicylic acid. […] The structure of platelet-tumor cell aggregates was studied using phase-contrast microscopy (Alonso-Escolano et al., 2004; Jurasz et al., 2001). […] Aliquots of each sample were then taken for phase-contrast microscopy examination using an Olympus CKX41 microscope (Olympus America Inc., […].). Photomicrographs were captured using a digital camera and MicroFire (Olympus America Inc.) software (Alonso-Escolano et al., 2004; Jurasz et al., 2001).

[7] = tested on: 59M cells; test: Flow-mediated TCIPA using an ultrasound standing wave trap; type: cell-based, human; details: 500 μM, 59M cell cluster
Description: The ultrasound trap had three essential features: a transducer (Ferroperm, Kvistgard, Denmark) in a housing of radial symmetry, an aqueous phase and a reflector that provided optical access from above. The trap was driven with a function generator (Hewlett Packard 33120A, UK). Microscopic observation occurred with a fast, high-resolution XM10 camera (Soft Imaging System, SIS, GmbH) mounted on an Olympus BX51M reflection epi-fluorescence microscope. Images were captured by a standard PC equipped with the Cell-D image acquisition software (Soft Imaging System, SIS, GmbH).
The experimental procedure was as follows: 59M cells were introduced into the trap, the acoustic field (2.13 MHz, 0.85 MPa) was initiated and cell clusters were allowed to form. Clusters remained levitated in suspension for 10 min. Washed platelets (2.5×10^8/ml) were introduced into the trap at a flow rate of 3 μl/min. Perfusion of washed platelets around the cluster proceeded following initial adhesion of platelets to the periphery of the cluster.
To study the effect of aspirin and aspirin prodrugs in TCIPA, washed platelets were pre-incubated for 10 min at room temperature with the inhibitors: aspirin, nicotinate, ISAS, ISMNA, ortho and meta (all at a concentration of 500 μM), prior to their introduction into the ultrasound trap. […] The cell cluster-platelet aggregate remained under microscopic observation for further 10 min (the upper time limit established in the current study) under continuous flow conditions. Further experiments were performed with ST0702 salicylate (500 μM).

[8] = tested on: platelet rich plasma (PRP); test: ADP-induced platelet aggregation in PRP; type: cell-based, human; details: ODQ 10 μM, ADP 10 μM, PRP
Description: as §1, §2, §3, §4
1H-[1,2,4]Oxadiazolo[4,3-a]quinoxalin-1-one (ODQ, dissolved in 100% DMSO, used at a final concentration of 10 μM, which gave a final concentration not more than 0.25% DMSO) was preincubated with PRP or WP for 5 min in the aggregometer with stirring at 900 r.p.m. before the addition of test compounds (ST0701-05), which were incubated in PRP or WP for a further 10 min prior to the addition of an agonist (10 μM ADP or 5 μg/ml collagen) to induce platelet aggregation.
Eserine (10 μM) was incubated with PRP for 5 min in the aggregometer with stirring at 900 r.p.m. before the addition of test compound ST0702 salicylate (500 μM), which was incubated in PRP for a further 10 min prior to the addition of the agonist ADP (10 μM) to induce platelet aggregation.

[9] = tested on: washed platelets (WP); test: Collagen-induced platelet aggregation in washed platelets (light aggregometry); type: cell-based, human; details: WP, collagen 2 μg/ml, PMSF up to 100 μM
Description: as §1, §2, §3
To study the involvement of plasma BuChE in the activation of ST0701, purified BuChE (3 U/ml) was incubated with WP for 5 min in the aggregometer with stirring at 900 r.p.m. before the addition of the test compounds ST0701 which was incubated with the WP for a further 10 min, prior to the addition of collagen (5 ug/ml).
as §4
Phenylmethylsulphonylfluoride (PMSF) 20, 50 and 100 μM dissolved in EtOH (<0.2% EtOH, which pilot studies had determined not to affect platelet aggregation) was preincubated in WP in the aggregometer for 5 min with stirring at 900 r.p.m. before the addition of test compound ST0702 to the WP, which was further incubated for 10 min prior to the addition of collagen (2 μg/ml) to induce platelet aggregation.

O=C(O)c1ccccc1O [salicylic acid]
inhibition of collagen induced aggregation by hydrolysis products [1]: None of the hydrolysis products significantly inhibited aggregation

O=[N+]([O-])c1ccc(OP(=O)(O)Oc2ccc([N+](=O)[O-])cc2)cc1 [BNPP, bis-p-nitrophylphosphate]
effect on NPA/PNA activity of WP or lysed platelets [2]: no significant effect

O[C@@H]1CO[C@H]2[C@@H]1OC[C@@H]2O [Isosorbide]
inhibition of collagen induced aggregation by hydrolysis products [1]: None of the hydrolysis products significantly inhibited aggregation

CC(=O)Oc1ccccc1C(=O)OC1COC2C(OC(=O)c3cccnc3)COC12 (stereo not shown) [Micronized ST0702, isosorbide-2-aspirinate-5-nicotinate]
% of aspirin AUC ([3]; Phase 2B, Micronised ST0702 equimolar dose vs aspirin 4.2 mg/Kg): 62% | expected aspirin delivered in-vivo ([3]; Studies 2A and 2B together, relative to equivalent aspirin): 58-62% | TxB2 suppression (TxB2 levels as percentage of baseline), in words [4]: no difference between aspirin and micronized ST0702 | TxB2 suppression (TxB2 levels as percentage of baseline), in words ([4]; listed as micronised ISANA): as effective as equimolar doses of aspirin | TxB2 suppression, % complete ([4]; 4.8 mg/Kg oral): 47% | TxB2 suppression, % complete ([4]; 9.6 mg/Kg oral): 70%

CC(=O)Oc1ccccc1C(=O)O[C@H]1CO[C@H]2[C@@H]1OC[C@H]2OC(=O)c1cccc(CO[N+](=O)[O-])c1 [metanitrate]
59M-mediated increase in platelet surface P-selectin [5]: significantly (P<0.05, n=4) reduce | inhibition of TCIPA induced by 59M [6]: inhibited | inhibition of TCIPA induced by 59M ([6]; listed as Meta): able to inhibit | inhibition of TCIPA under flow conditions (platelet-tumour cell disruption) [7]: did not interfere

O=C(O)CN(CCN(CC(=O)O)CC(=O)O)CC(=O)O [EDTA, ethylenediaminetetraacetic acid]
effect on NPA activity of WP [2]: no effect

O=c1onc2cnc3ccccc3n12 [ODQ, 1H-[1,2,4]oxadiazolo[4,3-a]quinoxalin-1-one, reference compound]
inhibition of ADP induced aggregation when incubated alone [8]: some inhibition

O=C(O[C@H]1CO[C@H]2[C@@H]1OC[C@H]2OC(=O)c1ccccc1O)c1ccccc1O [isosorbide-2,5-disalicylate]
inhibition of collagen induced aggregation by hydrolysis products [1]: None of the hydrolysis products significantly inhibited aggregation | attenuation of aspirin's inhibitory effect on co-incubation ([1]; co-incubated with aspirin, 50-500 μM, non-significant trend): ≤ 10%

CC(C)NP(=O)(NC(C)C)OP(=O)(NC(C)C)NC(C)C [Iso-OMPA, tetraisopropylpyrophosphoramide]
effect on NPA/PNA activity of WP or lysed platelets [2]: no effect

O=C(O[C@@H]1CO[C@H]2[C@H]1OC[C@@H]2O)c1ccccc1O [isosorbide-5-salicylate]
inhibition of collagen induced aggregation by hydrolysis products [1]: None of the hydrolysis products significantly inhibited aggregation

O=S(=O)(F)Cc1ccccc1 [PMSF, phenylmethylsulphonyl fluoride]
inhibition of NPA activity in WP ([2]; at 10 μM): 50% | inhibition of NPA activity in WP ([2]; at 100 μM): almost completely inhibited | effect of PMSF alone on collagen-induced aggregation [9]: no significant effect
